Reference: US11306095B2 (EAST CHINA UNIVERSITY OF SCIENCE AND TECHNOLOGY, priority 2015, dated 2022)
In brackets after ≈: the same amount, converted by molar mass.

Key:
[1] = tested on: H1975 cells (EGFR L858R/T790M); experiment: Inhibitory activity on cell proliferation, H1975; type: cell-based; conditions: Homo sapiens, NCI-H1975; H1975, 72 hours; read-out: Inhibitory activity on proliferation of cells (IC50, μM) H1975
[2] = tested on: A431 cells (EGFR wild type); experiment: Inhibitory activity on cell proliferation, A431; type: cell-based; conditions: Homo sapiens, A-431; A431, 72 hours; read-out: Inhibitory activity on proliferation of cells (IC50, μM) A431
H1975 cell xenograft = H1975 cell xenograft tumor assay; type: in vivo, BALB/c nude mice; conditions: 25 mg/kg
Protocol: Purpose of experiment: H1975 transplanted BALB/c nude mice were orally administered (PO) with a substance to be tested for 14 consecutive days. The body weight and tumor size of nude mice were observed and recorded.
H1975 cells were obtained from Shanghai Institute of Materia Medica. […] Cells were fluid-changed and passaged for one time every 2-3 days and expanded. When the desired amount of cells was achieved, transplantation of cells was performed.
(§1) 40 male BALB/c nude mice, aged 4-5 weeks and weighing 17-23 g, were purchased from Shanghai Bikai, placed in an animal room environment for 2-3 days, and then seeded with cells. Cell suspension was subcutaneously injected at forelimb of the nude mouse rich in capillaries, and each mouse was injected with 0.1 mL of cell suspension.
(§2) Appropriate amount of a substance to be tested was weighed, suspended in 14 mL of DMSO-PEG400 saline solution (DMSO:PEG400:saline=1:30:69) respectively, formulated according to the following table, suspended or dissolved by ultrasonic wave, filled into vials and sealed, and reserved in a 4° C. refrigerator for further use.
(§3) The length and width of a tumor and body weight of a mouse were recorded at least twice a week. The tumor size is calculated as V=0.5*length*width*width.

[3] = tested on: A431 cell xenograft (EGFR wild-type); experiment: A431 cell xenograft tumor assay; type: in vivo, BALB/c nude mice; conditions: 25 mg/kg, oral, 14 days
Protocol: Purpose of experiment: A431 xenograft tumor BALB/c nude mice were orally administered (PO) with a substance to be tested for 14 consecutive days. The body weight and tumor size of nude mice were observed and recorded.
Cells were fluid-changed and passaged for one time every 2-3 days and expanded. When the desired amount of cells was achieved, transplantation of cells was performed.
as §1
as §2, with “sealed” for “sealed,”
as §3

[4] = Pathological analysis of tumor-bearing mice after 14 consecutive days of administration; type: in vivo
Wild type EGFR = target: T1, Wild type EGFR (Homo sapiens, UniProt P00533); experiment: Kinase activity test (FRET), wild type EGFR; type: biochemical; conditions: wild type EGFR; read-out: Inhibitory activity of EGFR on kinase (IC50, nM) WT
T1 construct: purchased Invitrogen PV3872
T1 sequence (P00533 25-1210): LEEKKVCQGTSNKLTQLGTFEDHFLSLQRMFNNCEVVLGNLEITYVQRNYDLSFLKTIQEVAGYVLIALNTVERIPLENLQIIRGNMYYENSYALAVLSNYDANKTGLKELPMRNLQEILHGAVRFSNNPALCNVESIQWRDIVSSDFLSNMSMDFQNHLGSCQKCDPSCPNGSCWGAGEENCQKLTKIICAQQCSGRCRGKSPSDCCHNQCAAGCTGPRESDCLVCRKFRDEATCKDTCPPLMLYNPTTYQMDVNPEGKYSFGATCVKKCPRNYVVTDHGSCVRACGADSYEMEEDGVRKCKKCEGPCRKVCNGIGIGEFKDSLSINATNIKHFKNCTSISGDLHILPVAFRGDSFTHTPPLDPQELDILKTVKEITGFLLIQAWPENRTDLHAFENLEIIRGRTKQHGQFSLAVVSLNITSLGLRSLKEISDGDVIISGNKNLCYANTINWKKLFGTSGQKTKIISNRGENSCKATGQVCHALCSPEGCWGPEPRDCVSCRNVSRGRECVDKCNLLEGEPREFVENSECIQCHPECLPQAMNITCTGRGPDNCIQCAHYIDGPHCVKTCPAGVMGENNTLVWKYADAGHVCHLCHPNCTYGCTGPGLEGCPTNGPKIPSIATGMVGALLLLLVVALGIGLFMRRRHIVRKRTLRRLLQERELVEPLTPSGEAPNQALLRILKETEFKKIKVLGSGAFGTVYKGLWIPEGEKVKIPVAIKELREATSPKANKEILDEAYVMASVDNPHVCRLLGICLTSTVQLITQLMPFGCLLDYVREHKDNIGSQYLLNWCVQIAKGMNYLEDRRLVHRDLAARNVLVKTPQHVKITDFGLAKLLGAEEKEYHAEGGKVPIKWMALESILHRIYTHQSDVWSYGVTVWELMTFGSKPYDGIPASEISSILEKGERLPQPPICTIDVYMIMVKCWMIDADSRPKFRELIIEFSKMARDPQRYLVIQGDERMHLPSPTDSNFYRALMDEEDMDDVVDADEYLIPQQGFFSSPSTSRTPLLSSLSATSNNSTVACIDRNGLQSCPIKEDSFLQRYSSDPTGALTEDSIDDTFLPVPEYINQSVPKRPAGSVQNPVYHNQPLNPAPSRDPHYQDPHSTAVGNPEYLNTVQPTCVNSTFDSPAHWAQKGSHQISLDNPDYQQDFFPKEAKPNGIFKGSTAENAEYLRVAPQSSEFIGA
Procedure, shortened: (§4)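 FRET assay with coumarin/fluorescein-labelled poly(Glu, Tyr)4:1 peptide and ATP, compounds at 5.1×10^−11 to 1.0×10^−6 mol/L final. Kinase reaction 1.5 h at room temperature, then 1 h development cleaving unphosphorylated peptide.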

EGFR-L858R/T790M = target: T2, EGFR-L858R/T790M (Homo sapiens, UniProt P00533, L858R/T790M); experiment: Kinase activity test (FRET), EGFR T790M/L858R; type: biochemical; conditions: EGFR T790M/L858R; read-out: Inhibitory activity of EGFR on kinase (IC50, nM) T790M/L858R
T2 construct: purchased Invitrogen PV4879
T2 sequence (P00533 25-1210 T790M/L858R): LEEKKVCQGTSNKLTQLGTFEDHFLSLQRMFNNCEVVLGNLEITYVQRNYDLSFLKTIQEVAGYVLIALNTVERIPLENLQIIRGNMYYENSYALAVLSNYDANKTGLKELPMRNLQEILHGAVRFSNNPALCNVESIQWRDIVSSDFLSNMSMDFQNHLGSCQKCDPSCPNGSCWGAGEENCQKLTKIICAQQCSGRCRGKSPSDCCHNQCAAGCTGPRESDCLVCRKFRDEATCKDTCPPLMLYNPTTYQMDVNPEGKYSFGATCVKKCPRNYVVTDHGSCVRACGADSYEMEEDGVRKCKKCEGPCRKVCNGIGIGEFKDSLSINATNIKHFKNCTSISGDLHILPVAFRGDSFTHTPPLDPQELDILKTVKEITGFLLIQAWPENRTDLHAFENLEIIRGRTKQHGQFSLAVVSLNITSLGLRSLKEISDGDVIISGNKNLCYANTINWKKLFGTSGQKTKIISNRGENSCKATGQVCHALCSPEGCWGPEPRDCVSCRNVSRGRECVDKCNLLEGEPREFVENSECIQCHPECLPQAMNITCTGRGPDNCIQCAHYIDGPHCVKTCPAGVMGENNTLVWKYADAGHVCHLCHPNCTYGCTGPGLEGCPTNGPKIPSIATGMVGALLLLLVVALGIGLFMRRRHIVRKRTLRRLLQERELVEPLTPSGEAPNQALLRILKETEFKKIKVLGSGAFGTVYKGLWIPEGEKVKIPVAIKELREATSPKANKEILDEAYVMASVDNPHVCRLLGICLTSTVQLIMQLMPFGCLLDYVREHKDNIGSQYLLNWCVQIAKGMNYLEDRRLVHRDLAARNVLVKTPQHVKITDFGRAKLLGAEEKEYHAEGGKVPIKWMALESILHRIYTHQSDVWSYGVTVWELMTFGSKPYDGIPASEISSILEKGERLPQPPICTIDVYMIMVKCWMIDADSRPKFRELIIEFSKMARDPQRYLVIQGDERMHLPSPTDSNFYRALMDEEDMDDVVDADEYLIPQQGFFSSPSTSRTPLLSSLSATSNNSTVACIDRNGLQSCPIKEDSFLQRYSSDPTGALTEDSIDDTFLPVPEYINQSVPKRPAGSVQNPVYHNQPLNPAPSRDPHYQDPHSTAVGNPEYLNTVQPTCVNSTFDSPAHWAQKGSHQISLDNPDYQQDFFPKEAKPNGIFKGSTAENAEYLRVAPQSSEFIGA
Procedure, shortened: as §4

[5] = Determination of solubility in water (PBS 20 mM, pH 6.8); type: physicochemical; conditions: PBS buffer, aqueous buffer, thermodynamic from solid; pH 6.8, 20 mM PBS; read-out: Solubility (pH 6.8, g/mL)
Procedure, shortened: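 Compound suspension filtered (0.22 μm PVDF), diluted in 50% methanol/50% PBS, absorbance read by UV spectrophotometry. Solubility calculated from a standard curve of 0.01–0.05 mg/mL methanol-derived solutions (r > 0.998).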

Compound: C=CC(=O)Nc1cc(Nc2nccc(-c3cn(C)c4ccccc34)n2)c(OC)cc1N(C)CCN(C)C [AZD9291, reference compound]
- effect on tumor size in H1975 xenograft (FIG. 2) (H1975 cell xenograft): effectively reduce the size of a tumor
- tumor size in EGFR wild-type A431 cell xenograft model (FIG. 3) [3]: the size of the tumor did not substantially change
- pathology, brain tissue (FIG. 5E) [4]: normal tissue structure, no pathological change
- pathology, heart tissue (FIG. 5G) [4]: 1) moderate expansion of myocardial fiber gap in the tissue, as indicated by the black arrow, 2) vacuoles formed in the cytoplasm of the myocardial fibers
- pathology, intestine tissue (FIG. 5A) [4]: inflammatory cell focal infiltration seen in tissue
- pathology, kidney tissue (FIG. 5F) [4]: 1) extensive kidney tubular lumen expansion in tissue, as shown by the black arrow, 2) part of glomerular wall thickening, as shown by the yellow arrow, and 3) visible transparent tube
- pathology, liver tissue (FIG. 5C) [4]: 1) more severe liver injury, extensive hepatic sinusoids dilatation, as indicated by the black arrow, and 2) visible necrosis in liver tissue
- pathology, lung tissue (FIG. 5B) [4]: pulmonary congestion, interstitial edema
- pathology, tumor tissue (FIG. 5D) [4]: moderate necrosis of cells in the entire tissues

Compound: C=CC(=O)Nc1cccc(-n2c(=O)c(-c3ccccc3)nc3cnc(Nc4ccc(N5CCN(C)CC5)c(OC)c4)nc32)c1 [Compound 42, N-(3-(2-((3-methoxy-4-(4-methyl-1-piperazinyl)phenyl)amino)-7-oxo-6-phenyl-8(7H)pteridinyl)phenyl)acrylamide]
- IC50 (Wild type EGFR): 528 nM
- IC50 (EGFR-L858R/T790M): 47.5 nM
- IC50 [1]: 0.003 µM
- IC50 [2]: 0.328 µM
- solubility [5]: < 10 µg/mL
- melting point: 264.7 to 265.5 °C

Compound: C=CC(=O)N1CCC[C@H](Cn2c(=O)c(-c3ccccc3)nc3cnc(Nc4ccc(N5CCN(C)CC5)cc4OC)nc32)C1 [Compound 44]
- IC50 (Wild type EGFR): 343 nM
- IC50 (EGFR-L858R/T790M): > 1000 nM
- IC50 [1]: 1.56 µM
- IC50 [2]: 1.81 µM
- solubility [5]: < 10 µg/mL
- melting point: 208.3 to 209.3 °C

Compound: C=CC(=O)N1CCC[C@@H](n2c(=O)c(-c3ccccc3)nc3cnc(Nc4ccc(N5CCN(C)CC5)cc4OC)nc32)C1 [Compound 45, (R)-8-(1-acryloyl-3-piperidinyl)-2-((2-methoxy-4-(4-methyl-1-piperazinyl)phenyl)amino)-6-phenyl-7(8H)pteridinone]
- IC50 (Wild type EGFR): > 1000 nM
- IC50 (EGFR-L858R/T790M): > 1000 nM
- IC50 [1]: 1.78 µM
- IC50 [2]: 4.28 µM
- solubility [5]: < 10 µg/mL
- melting point: 134.9 to 135.1 °C

Compound: C=CC(=O)N1CCC[C@@H](n2c(=O)c(C3CCCCC3)nc3cnc(Nc4ccc(N5CCN(C)CC5)cc4OC)nc32)C1 [Compound 46, (R)-8-(1-acryloyl-3-piperidinyl)-6-cyclohexyl-2-((2-methoxy-4-(4-methyl-1-piperazinyl)phenyl)amino)-7(8H)pteridinone]
- IC50 (Wild type EGFR): > 10000 nM
- IC50 (EGFR-L858R/T790M): 13.3 nM
- IC50 [1]: 2.16 µM
- IC50 [2]: 2.39 µM
- solubility [5]: 43.2 µg/mL (≈ 73.6 µM)
- melting point: 94.2 to 94.7 °C

Compound: C=CC(=O)Nc1cccc(-n2c(=O)c(-c3ccccc3)nc3cnc(Nc4ccc(N5CCN(C)CC5)c(C)c4)nc32)c1 [Compound 47, N-(3-(2-((3-methyl-4-(4-methyl-1-piperazinyl)phenyl)amino)-7-oxy-6-phenyl-8(7H)pteridinyl)phenyl)acrylamide]
- IC50 (Wild type EGFR): 0.5 nM
- IC50 (EGFR-L858R/T790M): 0.2 nM
- IC50 [1]: 0.018 µM
- IC50 [2]: 1.73 µM
- solubility [5]: < 10 µg/mL
- melting point: 265 to 265.2 °C

Compound: C=CC(=O)Nc1cccc(-n2c(=O)c(-c3ccccc3)nc3cnc(Nc4ccc(N5CCC(N6CCN(C)CC6)CC5)cc4OC)nc32)c1 [Compound 48, N-(3-(2-((2-methoxy-4-(4-(4-methyl-1-piperazinyl)piperidinyl)phenyl)amino)-7-oxo-6-phenyl-8(7H)pteridinyl)phenyl)acrylamide]
- IC50 (Wild type EGFR): 362 nM
- IC50 (EGFR-L858R/T790M): 20.8 nM
- IC50 [1]: 0.031 µM
- IC50 [2]: 0.64 µM
- solubility [5]: < 10 µg/mL
- melting point: > 300 °C

Compound: C=CC(=O)N1CC[C@H](n2c(=O)c(C3CCCCC3)nc3cnc(Nc4ccc(N5CCN(C)CC5)cc4OC)nc32)C1 [Compound 50, (S)-8-(1-acryloyl-3-pyrrolidinyl)-6-cyclohexyl-2-((2-methoxy-4-(4-methyl-1-piperazinyl)phenyl)amino)-7(8H)pteridinone]
- IC50 (Wild type EGFR): 2.7 nM
- IC50 (EGFR-L858R/T790M): 86.9 nM
- IC50 [1]: 1.24 µM
- IC50 [2]: 1.11 µM
- solubility [5]: 719 µg/mL (≈ 1260 µM)
- melting point: 117.9 to 118.2 °C

Compound: COc1cc(N2CCN(C)CC2)ccc1Nc1ncc2nc(-c3ccccc3)c(=O)n(-c3cccc(N)c3)c2n1 [Compound 51, 8-(3-aminophenyl)-2-((2-methoxy-4-(4-methyl-1-piperazinyl)phenyl)amino)-6-phenyl-7(8H)pteridinone]
- IC50 (Wild type EGFR): 16.6 nM
- IC50 (EGFR-L858R/T790M): 251 nM
- IC50 [1]: 5.34 µM
- IC50 [2]: 2.06 µM
- solubility [5]: < 10 µg/mL
- melting point: 235.5 to 235.7 °C

Compound: C=CC(=O)Nc1cccc(-n2c(=O)c(-c3ccc(F)cc3)nc3cnc(Nc4ccc(N5CCN(C)CC5)cc4OC)nc32)c1 [Compound 52, N-(3-(6-(4-fluorophenyl)-2-((2-methoxy-4-(4-methyl-1-piperazinyl)phenyl)amino)-7-oxo-8(7H)pteridinyl)phenyl)acrylamide]
- IC50 (Wild type EGFR): 1.3 nM
- IC50 (EGFR-L858R/T790M): 0.6 nM
- IC50 [1]: 0.044 µM
- IC50 [2]: 1.46 µM
- solubility [5]: < 10 µg/mL
- melting point: 262.3 to 262.7 °C

Compound: C=CC(=O)Nc1cccc(-n2c(=O)c(-c3ccc(OC)cc3)nc3cnc(Nc4ccc(N5CCN(C)CC5)cc4OC)nc32)c1 [Compound 54, N-(3-(2-((2-methoxy-4-(4-methyl-1-piperazinyl)phenyl)amino)-6-(4-methoxyphenyl)-7-oxo-8(7H)pteridinyl)phenyl)acrylamide]
- IC50 (Wild type EGFR): 1.5 nM
- IC50 (EGFR-L858R/T790M): 3.5 nM
- IC50 [1]: 1.06 µM
- IC50 [2]: 4.1 µM
- solubility [5]: < 10 µg/mL
- melting point: 296.5 to 297.3 °C

Compound: C=CC(=O)Nc1cccc(-n2c(=O)c(-c3cc(F)cc(F)c3)nc3cnc(Nc4ccc(N5CCN(C)CC5)cc4OC)nc32)c1 [Compound 55, N-(3-(6-(3,5-difluorophenyl)-2-((2-methoxy-4-(4-methyl-1-piperazinyl)phenyl)amino)-7-oxo-8(7H)pteridinyl)phenyl)acrylamide]
- IC50 (Wild type EGFR): 6.6 nM
- IC50 (EGFR-L858R/T790M): 6.1 nM
- IC50 [1]: 0.262 µM
- IC50 [2]: 1.3 µM
- solubility [5]: < 10 µg/mL
- melting point: 291.2 to 291.4 °C

Compound: C=CC(=O)Nc1cccc(-n2c(=O)c(-c3ccc(F)c(F)c3)nc3cnc(Nc4ccc(N5CCN(C)CC5)cc4OC)nc32)c1 [Compound 56, N-(3-(6-(3,4-difluorophenyl)-2-((2-methoxy-4-(4-methyl-1-piperazinyl)phenyl)amino)-7-oxo-8(7H)pteridinyl)phenyl)acrylamide]
- IC50 (Wild type EGFR): 1.6 nM
- IC50 (EGFR-L858R/T790M): 1.7 nM
- IC50 [1]: 0.228 µM
- IC50 [2]: 1.2 µM
- solubility [5]: < 10 µg/mL
- melting point: > 300 °C

Compound: C=CC(=O)Nc1cccc(-n2c(=O)c(-c3cccc(OC)c3)nc3cnc(Nc4ccc(N5CCN(C)CC5)cc4OC)nc32)c1 [Compound 57, N-(3-(2-((2-methoxy-4-(4-methyl-1-piperazinyl)phenyl)amino)-6-(3-methoxyphenyl)-7-oxo-8(7H)pteridinyl)phenyl)acrylamide]
- IC50 (Wild type EGFR): 2.8 nM
- IC50 (EGFR-L858R/T790M): 1.8 nM
- IC50 [1]: 0.225 µM
- IC50 [2]: 1.37 µM
- solubility [5]: < 10 µg/mL
- melting point: > 300 °C
